Measurements as given in US12428369B2, “Crystal form of aromatic vinyl derivatives, and preparation method therefor and use thereof” (GUANGZHOU MAXINOVEL PHARMACEUTICALS CO., LTD., priority 2020, dated 2025).
Converted amounts (≈) assume the structure as drawn. Values belong to the compound of their own block, whether it stands above or below them.

How the values were obtained:
[1] = Dynamic vapor sorption (DVS) analysis; format: physicochemical; conditions: 25° C.; for hygroscopicity: assessment in words
Experimental: (§1) The hygroscopic characteristics of the sample were tested when the humidity changed from 0% RH to 95% RH, and the dehumidifying characteristics of the sample were tested when the humidity changed from 95% RH to 0% RH. The humidity change in each step size was 5% RH, the equilibrium standard was that the weight change rate within 10 min was less than 0.01%/min, and the longest equilibrium time was 2 hours.
as §1, with “5” for “10”

[2] = Equilibrium solubility and dissolution rate in water, SGF, FaSSIF, FeSSIF; format: physicochemical; conditions: for solubility at 0.5 h / solubility at 2 h / solubility at 24 h: 37 °C, thermodynamic from solid; for Solubility: 37° C.
Experimental: To further study whether the equilibrium solubility and dissolution rate of crystal forms A, B and C are different in pure water and physiological related media in vivo, the equilibrium solubility and dissolution rate of […] crystal forms in water, simulated gastric fluid (SGF), fasted-state simulated intestinal fluid (FaSSIF) and fed state simulated intestinal fluid (FeSSIF) were tested respectively.

[3] = Solid-state stability: appearance and crystal form (XRPD); format: physicochemical; conditions: for physical stability: four storage conditions
Experimental: (§2) The samples of crystal forms A, B, and C were weighed and added to a 20 mL colorless transparent glass bottle, respectively, and the sample bottles were respectively placed under the corresponding influencing factors and acceleration conditions (the sample bottles under humidity conditions were sealed with tin foil and placed with holes, and the other samples were covered tightly and placed), taken out after being placed for 1 week and 2 weeks respectively, and the sample content and related substances under various conditions were detected by HPLC; according to the same method as above, samples were respectively weighed and placed under a corresponding influencing factor and accelerated condition, and were taken out after being placed for 2 weeks for observing the appearance and XRPD characterization of each sample, and the physical stability of each crystal form was examined, and the test methods are detailed in table 14 and table 15; at the same time, 2 samples of the crystal forms A, B, and C of the compound as shown in formula I were respectively weighed accurately into 20 mL colorless transparent glass bottles and covered tightly, placed in a −20° C. refrigerator, and taken out as a standard for HPLC analysis at 2 weeks, and the test results are detailed in table 16 and table 17.

[4] = Solid-state stability: content and related substances by HPLC; format: physicochemical
Experimental: as §2

[5] = molecular target: PD-1 and PD-L1 (Homo sapiens, UniProt Q9NZQ7); conditions: as disclosed in patent CN109988144A; cited from earlier work
PD-1 and PD-L1, sequence (Q9NZQ7 19-238 limits assumed): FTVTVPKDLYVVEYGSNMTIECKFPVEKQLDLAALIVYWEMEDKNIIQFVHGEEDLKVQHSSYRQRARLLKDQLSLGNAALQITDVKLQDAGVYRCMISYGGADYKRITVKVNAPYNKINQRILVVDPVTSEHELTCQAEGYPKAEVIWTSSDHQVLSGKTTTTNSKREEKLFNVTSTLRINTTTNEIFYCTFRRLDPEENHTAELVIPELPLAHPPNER

[6] = Acceleration (40° C./75% RH), 2 weeks
[7] = High humidity (92.5% RH), 2 weeks
[8] = High temperature (60° C.), 2 weeks
[9] = Illumination (4500 Lux), 2 weeks
[10] = high temperature, high humidity, illumination and acceleration, 2 weeks (conclusion)
[11] = Acceleration (40° C./75% RH), 1 week
[12] = High humidity (92.5% RH), 1 week
[13] = High temperature (60° C.), 1 week
[14] = illumination (4500 LuX), 1 week
[15] = illumination (4500 LuX), 2 weeks

hygroscopic weight gain ([1]; 80% RH): 0.310% | hygroscopic weight gain ([1]; 95% RH): 0.409% | hygroscopicity [1]: slightly hygroscopic | solubility at 0.5 h ([2]; FaSSIF as printed (second set of rows), fessif, FaSSIF, 0.5 hours): 183 µg/mL (≈ 389 µM) | solubility at 2 h ([2]; FaSSIF as printed (second set of rows), fessif, FaSSIF, 2 hours): 177 µg/mL (≈ 376 µM) | solubility at 24 h ([2]; FaSSIF as printed (second set of rows), fessif, FaSSIF, 24 hours): 170 µg/mL (≈ 363 µM) | Solubility ([2]; FaSSIF, 2 hours): 2.0 µg/mL (≈ 4.26 µM) | Solubility ([2]; SGF, 0.5 hours): 0.4 µg/mL (≈ 0.852 µM) | Solubility ([2]; SGF, 2 hours): 0.3 µg/mL (≈ 0.639 µM) | Solubility ([2]; SGF, 24 hours): 0.1 µg/mL (≈ 0.213 µM) | Solubility ([2]; Water, 24 hours): 6.1 µg/mL (≈ 13 µM) | solubility at 0.5 h ([2]; fasted-state simulated intestinal fluid (FaSSIF), fassif, 0.5 hours): 8.7 µg/mL (≈ 18.5 µM) | solubility at 24 h ([2]; fasted-state simulated intestinal fluid (FaSSIF), fassif, 24 hours): 4.3 µg/mL (≈ 9.16 µM) | solubility at 0.5 h ([2]; water, 0.5 hours): 1.5 µg/mL (≈ 3.19 µM) | solubility at 2 h ([2]; water, 2 hours): 6 µg/mL (≈ 12.8 µM) | Appearance [3, 6]: Off-white | Crystal form (XRPD) after storage [3, 6]: Crystal form A | Appearance ([3]; Control, −20° C., 2 weeks): Off-white | Crystal form (XRPD) after storage ([3]; Control, −20° C., 2 weeks, listed as Crystal form A-Control): Crystal form A | Appearance [3, 7]: Off-white | Crystal form (XRPD) after storage [3, 7]: Crystal form A | Appearance [3, 8]: Off-white | Crystal form (XRPD) after storage [3, 8]: Crystal form A | Appearance [3, 9]: Off-white | Crystal form (XRPD) after storage [3, 9]: Crystal form A | physical stability ([3]; 2 weeks (conclusion)): good | Appearance [3, 10]: off-white | Content [4, 11]: 104.34% | Total related substances [4, 11]: 0.04% | Content [4, 6]: 104.13% | Total related substances [4, 6]: 0.03% | Total related substances ([4]; Control, −20° C., 2 weeks): 0.00% | Content [4, 12]: 104.75% | Total related substances [4, 12]: 0.10% | Content [4, 7]: 104.25% | Total related substances [4, 7]: 0.12% | Content [4, 13]: 100.69% | Total related substances [4, 13]: 0.02% | Content [4, 8]: 104.03% | Total related substances [4, 8]: 0.03% | Content [4, 14]: 96.10% | Total related substances [4, 14]: 3.94% | Content [4, 15]: 88.50% | Total related substances [4, 15]: 11.18%
SMILES: Cc1c(/C=C/c2cc(CN[C@@](C)(CO)C(=O)O)ccc2C(F)(F)F)cccc1-c1ccccc1 [Crystal form A]

SMILES: Cc1c(/C=C/c2cc(CN[C@@](C)(CO)C(=O)O)ccc2C(F)(F)F)cccc1-c1ccccc1 [Compound I]
inhibitory effect on the combination of PD-1 and PD-L1 [5]: strong inhibitory effect

hygroscopicity [1]: hygroscopic | weight gain ([1]; from 0% RH to 95% RH): 7.235% | Solubility ([2]; FaSSIF (rows r12-r14), 0.5 hours, listed as B): 13.3 µg/mL (≈ 28.3 µM) | Solubility ([2]; FaSSIF (rows r12-r14), 2 hours, listed as B): 8.8 µg/mL (≈ 18.7 µM) | Solubility ([2]; FaSSIF (rows r12-r14), 24 hours, listed as B): 8.6 µg/mL (≈ 18.3 µM) | Solubility ([2]; FaSSIF as printed (second set, rows r15-r17), 0.5 hours, listed as B): 176.4 µg/mL (≈ 376 µM) | Solubility ([2]; FaSSIF as printed (second set, rows r15-r17), 2 hours, listed as B): 175.9 µg/mL (≈ 375 µM) | Solubility ([2]; FaSSIF as printed (second set, rows r15-r17), 24 hours, listed as B): 179.7 µg/mL (≈ 383 µM) | Solubility ([2]; SGF, 2 hours): 0.1 µg/mL (≈ 0.213 µM) | Solubility ([2]; SGF, 24 hours): 0.2 µg/mL (≈ 0.426 µM) | Solubility ([2]; Water, 0.5 hours): 2.5 µg/mL (≈ 5.32 µM) | Solubility ([2]; Water, 2 hours): 7.5 µg/mL (≈ 16 µM) | Solubility ([2]; Water, 24 hours): 1.2 µg/mL (≈ 2.56 µM) | solubility at 0.5 h ([2]; simulated gastric fluid (SGF), simulated gastric fluid, SGF, 0.5 hours): 0.5 µg/mL (≈ 1.06 µM) | Appearance [3, 6]: Off-white | Crystal form (XRPD) after storage [3, 6]: Crystal form B | Appearance ([3]; Control, −20° C., 2 weeks): Off-white | Crystal form (XRPD) after storage ([3]; Control, −20° C., 2 weeks, listed as Crystal form B-Control): Crystal form B | Appearance [3, 7]: Off-white | Crystal form (XRPD) after storage [3, 7]: Crystal form B | Appearance [3, 8]: Off-white | Crystal form (XRPD) after storage [3, 8]: Mixed crystal form | Crystal form (XRPD) after storage ([3]; High temperature (60° C.), 2 weeks, listed as crystal form B): converted into other crystal form | Appearance [3, 9]: Off-white | Crystal form (XRPD) after storage [3, 9]: Crystal form B | physical stability ([3]; 2 weeks (conclusion)): poor | Appearance [3, 10]: off-white | Content [4, 11]: 103.22% | Total related substances [4, 11]: 0.00% | Content [4, 6]: 101.60% | Total related substances [4, 6]: 0.00% | Total related substances ([4]; Control, −20° C., 2 weeks): 0.00% | Content [4, 12]: 100.09% | Total related substances [4, 12]: 0.00% | Content [4, 7]: 100.83% | Total related substances [4, 7]: 0.00% | Content [4, 13]: 100.70% | Total related substances [4, 13]: 0.00% | Content [4, 8]: 100.15% | Total related substances [4, 8]: 0.00% | Content [4, 14]: 100.02% | Total related substances [4, 14]: 0.39% | Content [4, 15]: 99.69% | Total related substances [4, 15]: 1.28%
SMILES: Cc1c(/C=C/c2cc(CN[C@@](C)(CO)C(=O)O)ccc2C(F)(F)F)cccc1-c1ccccc1 [Crystal form B]
